In US20020009782A1, “Heparin and heparan sulfate derived oligosaccharides and a method for their manufacture” (priority 1999, published 2002):

What was measured:
[1] = Measurement of unsaturated bond formation (lyase activity) using absorbance at 232 nm; assay type: biochemical; details: 0.2% heparin, measured every 10 minutes for 1 hour, FIG. 1
Experimental: Measurement of Unsaturated Bond Formation Using Absorbance at 232 nm:
Reactions were prepared in 1 ml quartz cuvettes. For heparinase I [Lavobacterium heparinum, Sigma, Cat. No. H2519], 3 units enzyme were added to a reaction mixture A (18 mM Tris buffer pH 7.5, 45 mM NaCl, 4 mM CaCl2, 0.01% BSA) containing 0.2% heparin. For recombinant heparanase (expressed in insect cells, see, U.S. patent application Ser. Nos. 08/922,170; 09/071,618; 09/109,386; 09/258,892 and 09/260,038 and in PCT/US98/17954 and PCT/US98/09256, all of which are incorporated herein by reference), 5 mg enzyme were added to a reaction mixture B (20 mM phosphate citrate buffer pH 5.4, 1 mM CaCl2, 1 mM NaCl and 0.01% BSA) containing 0.2% heparin. Absorbance at 232 nm was measured in a Cary 100 (Varian) spectrophotometer every 10 minutes for a period of 1 hour.
Partially purified recombinant human heparanase expressed in insect cells was examined to determine whether it is a lyase or hydrolase. A bacterial heparinase I which is a lyase was used as a control. The formation of an unsaturated bond by lyase activity as measured by 232 nm absorbance was performed as described under experimental procedures above.

B16 melanoma = details: lung metastases induced by B16 melanoma, experimental animals; cited from earlier work
Lewis lung carcinoma = details: lung metastases induced by Lewis lung carcinoma, experimental animals; cited from earlier work
[2] = tested on: mammary adenocarcinoma cells; details: lung metastases induced by mammary adenocarcinoma cells, experimental animals; cited from earlier work

In the case of heparinase I, the “lyase activity: 232 nm absorbance (formation of Δ4,5 unsaturated bond of heparin)” value [1] is reported as “linear increase”.
In the case of laminarin sulfate, the “reduction of the incidence of lung metastases” value (shortened to “reduction”) (B16 melanoma) is given as > 90%, the “reduction” value (Lewis lung carcinoma) is given as > 90% and the “reduction” value [2] is given as > 90%.
